Results on one molecule are retold here after US6071950A, “N-substituted pyrrolidine derivatives and process for preparing the same” (Kyorin Pharmaceutical Co., Ltd., priority 1996, dated 2000).

Series [1] has as its target T1, ileum muscarine receptors (Cavia porcellus, UniProt H0W1Z3).
T1 construct: The ileum was removed to make a 1.5 to 2 cm preparation; from tissue; host or cells: isolated ileum of Hartley male guinea pig
The experiment in a line: Antagonism on the acetylcholine-induced contraction of ileum (in vitro test). The following applies: guinea pig ileum, Schild plot, acetylcholine 10^-9 M~3×10^-6 M, 28° C., read-out: pA2 Ileum (converted). The protocol: 1. Antagonism on the acetylcholine-induced contraction of ileum (in vitro test)
Hartley male guinea pig was killed by stunning and bleeding. The ileum was removed to make a 1.5 to 2 cm preparation. The preparation was mounted in a 10 ml organ bath filled with Tyrode's solution of 28° C. that was bubbled with 95% O2 /5% CO2. The initial resting tension of 1 g was applied to the preparation and measurement of isomeric muscle tension was recorded.
(§1) The action of testing drug is shown in terms of pA2 determined from Schild plot of the extent of right shift of the concentration-response curve on 10^-9 M~3×10^-6 M of acetylcholine.

Series [2] addresses T2, sphincter muscle of the pupil (Oryctolagus cuniculus, UniProt G1U308).
T2 construct: The eyeball was removed to make a preparation of sphincter muscle of the pupil; from tissue; host or cells: isolated pupillary sphincter muscle of Japanese white male rabbit
As to the kind of experiment: Antagonism on the acetylcholine-induced contraction of pupil (in vitro test). The conditions noted are these: rabbit sphincter muscle of the pupil, Schild plot, acetylcholine 10^-6 M~10^-2 M, 30° C., read-out: pA2 Pupil (converted). Here is the method:
2. Antagonism on the acetylcholine-induced contraction of pupil (in vitro test)
Japanese white male rabbit was anesthetized using sodium pentobarbital and killed by bleeding. The eyeball was removed to make a preparation of sphincter muscle of the pupil. The preparation was mounted in a 10 ml organ bath filled with Krebs solution of 30° C. that was bubbled with 95% O2 /5% CO2. The initial resting tension of 0.2 g was applied to the preparation and measurement of isometric muscle tension was recorded.
The action of testing drug is shown in terms of pA2 determined from Schild plot of the extent of right shift of the concentration-response curve on 10^-6 M~10^-2 M of acetylcholine.

Series [3] addresses T3, heart muscarine receptors (Cavia porcellus, UniProt H0VRN8).
T3 construct: The heart was removed to make a preparation of atrium of heart; from tissue; host or cells: isolated atrium of Hartley male guinea pig
T3 sequence (H0VRN8 1-466): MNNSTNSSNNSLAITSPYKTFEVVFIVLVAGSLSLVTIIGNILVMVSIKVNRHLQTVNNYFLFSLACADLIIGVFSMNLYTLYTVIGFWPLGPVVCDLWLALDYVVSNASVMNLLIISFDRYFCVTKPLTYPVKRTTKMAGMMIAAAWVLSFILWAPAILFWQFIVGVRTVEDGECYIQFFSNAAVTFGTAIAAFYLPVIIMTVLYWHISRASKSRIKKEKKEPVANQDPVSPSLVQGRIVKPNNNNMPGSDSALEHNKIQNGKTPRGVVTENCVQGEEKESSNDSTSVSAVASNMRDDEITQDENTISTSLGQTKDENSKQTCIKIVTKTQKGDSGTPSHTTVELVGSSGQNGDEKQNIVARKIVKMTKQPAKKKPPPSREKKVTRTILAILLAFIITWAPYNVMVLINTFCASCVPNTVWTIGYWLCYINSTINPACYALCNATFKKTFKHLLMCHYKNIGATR
As to the kind of experiment: Antagonism action on the acetylcholine-induced negative chronotropic action of atrium of heart (in vitro test). The following applies: guinea pig atrium of heart, Schild plot, acetylcholine 10^-9 M~3×10^-6 M, 32° C., read-out: pA2 Atrium (converted). Here is the method: 3. Antagonism action on the acetylcholine-induced negative chronotropic action of atrium of heart (in vitro test)
Hartley male guinea pig was killed by stunning and bleeding. The heart was removed to make a preparation of atrium of heart. The preparation was mounted in a 10 ml organ bath filled with Krebs-Henseleit solution of 32° C. that was bubbled with 95% O2 /5% CO2. The initial resting tension was made to be 0.5 g and measurement of isometric muscle tension was recorded.
as §1

The test system of series [4] is defecation model under restraint stress. The experiment in a line: Inhibitory effect in the defecation model under restraint stress (in vivo test). More on the design: species or system rat. The conditions noted are these: Wistar male rats; 10 mg/kg orally, restraint stress 30 minutes later; defecation measured after 1 hour. Here is the method: (§2) 4. Inhibitory effect in the defecation model under restraint stress (in vivo test)
(§3) Wistar strain male rats were employed. Testing drug was administered orally at 10 mg/kg and, after 30 minutes, the restraint stress was given by fixing the forefeet of rat on back side under anesthetization with ether. Moreover, the diameter of pupil (mm) was also measured.
(§4) After allowed to stand for 1 hour in separate cage, the defecation level and diameter of pupil were measured.
The inhibitory rate of defecation was determined from following formula.

The subject of series [5] is pupil. As to the kind of experiment: Diameter of pupil in the restraint stress model (in vivo test). More on the design: species or system rat. The conditions noted are these: Wistar male rats, 10 mg/kg orally. The protocol:
as §2, §3, §4

T1 sequence (H0W1Z3 1-590): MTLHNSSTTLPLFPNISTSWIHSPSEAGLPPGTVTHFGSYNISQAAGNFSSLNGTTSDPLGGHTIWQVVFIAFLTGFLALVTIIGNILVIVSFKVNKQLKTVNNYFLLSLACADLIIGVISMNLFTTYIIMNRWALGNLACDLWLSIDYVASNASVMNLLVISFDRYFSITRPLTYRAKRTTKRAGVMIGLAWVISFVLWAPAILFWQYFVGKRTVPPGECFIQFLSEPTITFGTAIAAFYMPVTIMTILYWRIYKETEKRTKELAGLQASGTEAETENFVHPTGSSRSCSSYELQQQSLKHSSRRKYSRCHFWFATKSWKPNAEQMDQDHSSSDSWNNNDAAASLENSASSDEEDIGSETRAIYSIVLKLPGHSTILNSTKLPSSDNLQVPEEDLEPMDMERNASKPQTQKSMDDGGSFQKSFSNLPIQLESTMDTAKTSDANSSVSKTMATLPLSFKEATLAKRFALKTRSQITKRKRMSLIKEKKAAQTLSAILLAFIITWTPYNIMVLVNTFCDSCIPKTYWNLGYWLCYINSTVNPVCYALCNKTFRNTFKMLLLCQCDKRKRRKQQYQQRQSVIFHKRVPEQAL
T2 sequence (G1U308 entry or part of it): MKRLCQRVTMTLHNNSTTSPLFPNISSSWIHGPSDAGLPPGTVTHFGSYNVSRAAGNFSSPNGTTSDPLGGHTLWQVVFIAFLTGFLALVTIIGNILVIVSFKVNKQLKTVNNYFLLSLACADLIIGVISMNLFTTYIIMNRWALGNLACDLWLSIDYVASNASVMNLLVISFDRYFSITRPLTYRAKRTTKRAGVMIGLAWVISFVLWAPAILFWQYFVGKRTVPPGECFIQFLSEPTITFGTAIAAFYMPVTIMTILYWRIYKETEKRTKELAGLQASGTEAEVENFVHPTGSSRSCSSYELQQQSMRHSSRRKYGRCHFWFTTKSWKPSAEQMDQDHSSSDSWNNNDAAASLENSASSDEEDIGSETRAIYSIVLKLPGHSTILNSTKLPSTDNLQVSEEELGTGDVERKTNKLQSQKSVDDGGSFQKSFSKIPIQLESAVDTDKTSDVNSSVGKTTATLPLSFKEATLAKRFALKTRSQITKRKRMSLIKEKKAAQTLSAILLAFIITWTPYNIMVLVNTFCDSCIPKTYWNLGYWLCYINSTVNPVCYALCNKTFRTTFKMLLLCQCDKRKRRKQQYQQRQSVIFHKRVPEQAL

On to `NC(=O)C(CCN1CCC(OCc2cccc(Cl)c2)C1)(c1ccccc1)c1ccccc1` (stereo not drawn) [Example 9, 4-[3-(3-chlorobenzyloxy)pyrrolidine-1-yl]-2,2-diphenylbutaneamide], for which the Kb is 25.1 nM in series [1], 50.1 nM in series [2] and 631 nM in series [3]. In addition, in series [4], the “Inhibitory rate of defecation (%)” value is reported as 48.9%. For the same molecule, in series [5] (Control 0.44), the “Diameter of pupil (mm), Immediately after restraint” value was 0.43 mm. The “Diameter of pupil (mm), After restraint” value in series [5] (after 1 hour, Control 0.48) is on record as 0.45 mm.
